According to patent US20210395210A1, “INHIBITION OF BACTERIAL CHAPERONIN SYSTEMS” (THE TRUSTEES OF INDIANA UNIVERSITY, priority 2018, published 2021):
Where two headings read alike, the source gives them in different places.

How the values were obtained:
[1] = tested on: Enterobacter cloacae (ATCC 13047); test: Bacterial proliferation assay, E. cloacae; type: cell-based
Outline: (§1)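 Cation-adjusted BHI (25 mg/L Ca2+, 12.5 mg/L Mg2+); inoculum OD600 0.017; static 37 °C. Read OD600 at 6-8 h for S. aureus, E. cloacae, P. aeruginosa; 24 h for A. baumannii.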

[2] = tested on: Methicillin resistant S. aureus (MRSA) (ATCC BAA-44); test: Bacterial proliferation assay, MRSA; type: cell-based, Staphylococcus aureus; conditions: Staphylococcus aureus, MRSA
Outline: as §1

[3] = tested on: Enterococcus faecium (ATCC 19434); test: Bacterial proliferation assay, E. faecium; type: cell-based
Outline: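 This stagnant growth-inhibition assay used E. faecium (ATCC 19434) in cation-adjusted Brain Heart Infusion medium. Diluted cultures (OD600 0.017) were added to clear flat-bottom 384-well plates containing 0.5 μL compound in 20 μL media. After 24 h without shaking at 37° C., absorbance at 600 nm was measured, corrected with bacteria-free plates, and EC50 values were averaged from quadruplicates.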

[4] = tested on: Acinetobacter baumannii (ATCC 19606); test: Bacterial proliferation assay, A. baumannii; type: cell-based
Outline: as §1

native MDH = target: T1, native MDH (Sus scrofa, UniProt P00346); test: Counter-screen for inhibition of native MDH enzymatic activity; type: biochemical, pig
T1 construct: soluble pig heart MDH from Roche, product #10127248001; purchased Roche 10127248001; host or cells: pig heart
T1 sequence (P00346 25-338): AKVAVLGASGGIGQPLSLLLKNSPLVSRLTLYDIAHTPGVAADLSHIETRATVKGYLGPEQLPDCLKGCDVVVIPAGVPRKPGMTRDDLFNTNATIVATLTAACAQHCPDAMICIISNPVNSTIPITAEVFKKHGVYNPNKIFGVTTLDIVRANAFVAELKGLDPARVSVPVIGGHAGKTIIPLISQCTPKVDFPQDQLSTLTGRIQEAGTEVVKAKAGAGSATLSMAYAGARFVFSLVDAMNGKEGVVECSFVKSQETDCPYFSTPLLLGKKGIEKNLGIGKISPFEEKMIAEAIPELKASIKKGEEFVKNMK
Outline: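 Fully refolded MDH, produced by a 45 min, 37 °C GroEL/ES reaction and stopped with EDTA, was then dosed with compound (62.5 μM–29 nM, 8 points, 3-fold). Activity was read as A340 NADH decrease until ~90% consumed; reported IC50s are means of at least quadruplicate runs.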

[5] = tested on: Drug sensitive Staphylococcus aureus (ATCC 25923); test: Bacterial proliferation assay, drug sensitive S. aureus; type: cell-based
Outline: as §1

[6] = tested on: Klebsiella Pneumonia (ATCC 13883); test: Bacterial proliferation assay, K. pneumoniae; type: cell-based
Outline: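 Growth inhibition of K. pneumoniae (ATCC 13883) was measured in cation-adjusted BHI broth. An overnight culture was sub-cultured 1:5 for 1-2 hours, then diluted to OD600 of 0.017 and dispensed into compound-stamped 384-well plates. Plates were sealed with oxygen-permeable membranes and incubated without shaking at 37° C. for 6-8 h. Absorbance at 600 nm was corrected against bacteria-free control plates, and EC50 was averaged from quadruplicate replicates.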

[7] = ATCC13047, OD600 at 6-8 h, read-out: Bacterial Proliferation EC50 E. cloacae
[8] = ATCC13047, log of EC50 (μM scale), with standard deviation, read-out: log(EC50) Bacterial Proliferation Assay E. cloacae (converted)
[9] = log of EC50 (μM scale), with standard deviation, read-out: log(EC50) Bacterial Proliferation Assay S. aureus Resistant (converted)
[10] = ATCC19434, OD600 at 24 h, read-out: Bacterial Proliferation EC50 E. faecium
[11] = ATCC19434, log of EC50 (μM scale), with standard deviation, read-out: log(EC50) Bacterial Proliferation Assay C. faecium (converted)
[12] = ATCC19606, OD600 at 24 h, read-out: Bacterial Proliferation EC50 A. baumannii
[13] = ATCC19606, log of EC50 (μM scale), with standard deviation, read-out: log(EC50) Bacterial Proliferation Assay A. baumannii (converted)
[14] = log of IC50 (μM scale), with standard deviation, read-out: log(IC50) Native MDH Reporter (converted)
[15] = read-out: Biochemical Assay IC50 Native MDH Reporter
[16] = ATCC25923, OD600 at 6-8 h, read-out: Bacterial Proliferation EC50 S. aureus Sensitive
[17] = ATCC25923, log of EC50 (μM scale), with standard deviation, read-out: log(EC50) Bacterial Proliferation Assay S. aureus Sensitive (converted)
[18] = ATCC13883, OD600 at 6-8 h, read-out: Bacterial Proliferation EC50 K. pneumoniae
[19] = ATCC13883, log of EC50 (μM scale), with standard deviation, read-out: log(EC50) Bacterial Proliferation Assay K. pneumoniae (converted)

Structure (SMILES)	EC50 [1, 7] [µM]	EC50 [1, 8] [µM]	EC50 ([2]; OD600 at 6-8 h, read-out: Bacterial Proliferation EC50 S. aureus Resistant) [µM]	EC50 [2, 9] [µM]	EC50 [3, 10] [µM]	EC50 [3, 11] [µM]	EC50 [4, 12] [µM]	EC50 [4, 13] [µM]	IC50 (native MDH; [14]) [µM]	IC50 (native MDH; [15]) [µM]	EC50 [5, 16] [µM]	EC50 [5, 17] [µM]	EC50 [6, 18] [µM]	EC50 [6, 19] [µM]
O=C(Nc1cccc(Cl)c1)c1cccc(Br)c1 [Compound 24, 3-Bromo-N-(3-chlorophenyl)benzamide]	> 100	> 100	68	67.6	> 100	> 100	> 100	> 100	> 63.1	> 63	47	46.8	> 100	> 100
O=C(Nc1cccc(Cl)c1)c1ccccc1 [Compound 25, N-(3-Chlorophenyl)benzamide]	> 100	> 100	–	> 100	> 100	> 100	> 100	> 100	> 63.1	> 63	> 100	> 100	> 100	> 100
O=C(Nc1ccccc1)c1cc(Br)cc(Br)c1 [Compound 26, 3,5-Dibromo-N-phenylbenzamide]	> 100	> 100	–	> 100	> 100	> 100	> 100	> 100	> 63.1	> 63	> 100	> 100	> 100	> 100
O=C(Nc1ccccc1)c1cccc(Br)c1 [Compound 27, 3-Bromo-N-phenylbenzamide]	> 100	> 100	–	> 100	> 100	> 100	> 100	> 100	> 63.1	> 63	> 100	> 100	> 100	> 100
COc1c(Br)cc(Br)cc1C(=O)Nc1ccc(Sc2nc3ccccc3s2)c(Cl)c1 [Compound 29, N-(4-(Benzo[d]thiazol-2-ylthio)-3-chlorophenyl)-3,5-dibromo-2-methoxybenzamide]	> 100	> 100	–	> 100	> 100	> 100	> 100	> 100	> 63.1	> 63	> 100	> 100	> 100	> 100
COc1c(Br)cccc1C(=O)Nc1ccc(Sc2nc3ccccc3s2)c(Cl)c1 [Compound 30, N-(4-(Benzo[d]thiazol-2-ylthio)-3-chlorophenyl)-3-bromo-2-methoxybenzamide]	> 100	> 100	–	> 100	> 100	> 100	> 100	> 100	> 63.1	> 63	> 100	> 100	> 100	> 100
COc1ccc(Br)cc1C(=O)Nc1ccc(Sc2nc3ccccc3s2)c(Cl)c1 [Compound 31, N-(4-(Benzo[d]thiazol-2-ylthio)-3-chlorophenyl)-5-bromo-2-methoxybenzamide]	> 100	> 100	–	> 100	> 100	> 100	> 100	> 100	> 63.1	> 63	> 100	> 100	> 100	> 100
COc1ccccc1C(=O)Nc1ccc(Sc2nc3ccccc3s2)c(Cl)c1 [Compound 32, N-(4-(Benzo[d]thiazol-2-ylthio)-3-chlorophenyl)-2-methoxybenzamide]	> 100	> 100	–	> 100	> 100	> 100	> 100	> 100	> 63.1	> 63	> 100	> 100	> 100	> 100
